The target of this test is T1, Full-length USP19 (Homo sapiens, UniProt O94966).
T1 construct: Full-length USP19 was purchased from Boston Biochem (E-576); purchased Boston Biochem E-576
T1 sequence (O94966 1-1318): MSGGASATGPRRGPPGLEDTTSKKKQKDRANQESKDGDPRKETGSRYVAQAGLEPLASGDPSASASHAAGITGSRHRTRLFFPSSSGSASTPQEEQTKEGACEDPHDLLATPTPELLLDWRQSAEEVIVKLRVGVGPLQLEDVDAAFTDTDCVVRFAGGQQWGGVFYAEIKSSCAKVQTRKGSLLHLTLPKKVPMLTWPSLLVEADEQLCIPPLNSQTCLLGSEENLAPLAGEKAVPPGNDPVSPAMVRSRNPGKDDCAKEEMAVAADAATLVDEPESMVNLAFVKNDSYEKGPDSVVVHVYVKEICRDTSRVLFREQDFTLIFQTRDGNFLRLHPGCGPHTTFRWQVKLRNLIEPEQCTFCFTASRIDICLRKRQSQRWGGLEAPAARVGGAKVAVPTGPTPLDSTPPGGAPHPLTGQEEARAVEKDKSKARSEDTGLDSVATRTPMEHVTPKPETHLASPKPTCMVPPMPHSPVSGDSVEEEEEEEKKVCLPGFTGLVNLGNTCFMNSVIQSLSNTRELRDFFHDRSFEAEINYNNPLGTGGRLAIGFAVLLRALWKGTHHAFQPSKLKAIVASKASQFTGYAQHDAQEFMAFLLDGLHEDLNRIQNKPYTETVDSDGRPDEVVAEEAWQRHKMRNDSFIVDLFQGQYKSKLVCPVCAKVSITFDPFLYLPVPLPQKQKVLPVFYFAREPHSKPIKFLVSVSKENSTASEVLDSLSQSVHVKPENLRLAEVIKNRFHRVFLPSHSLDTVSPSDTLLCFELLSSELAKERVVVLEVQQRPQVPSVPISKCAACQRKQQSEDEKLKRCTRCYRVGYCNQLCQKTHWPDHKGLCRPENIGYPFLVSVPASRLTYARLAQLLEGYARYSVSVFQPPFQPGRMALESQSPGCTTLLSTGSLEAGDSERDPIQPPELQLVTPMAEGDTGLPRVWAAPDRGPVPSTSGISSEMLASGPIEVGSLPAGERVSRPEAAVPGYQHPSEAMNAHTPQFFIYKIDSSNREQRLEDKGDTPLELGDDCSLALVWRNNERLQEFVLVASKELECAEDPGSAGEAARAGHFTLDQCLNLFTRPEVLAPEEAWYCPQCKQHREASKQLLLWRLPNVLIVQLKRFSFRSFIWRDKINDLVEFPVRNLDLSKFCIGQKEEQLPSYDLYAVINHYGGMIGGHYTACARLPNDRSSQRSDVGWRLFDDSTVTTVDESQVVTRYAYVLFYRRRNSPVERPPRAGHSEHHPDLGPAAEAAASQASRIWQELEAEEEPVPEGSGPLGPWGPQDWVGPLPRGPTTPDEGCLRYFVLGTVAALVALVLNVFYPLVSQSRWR
Nature of the test: USP19 fluorescence polarisation (FP) homogeneous assay with Ubiquitin-Lys-TAMRA substrate. Particulars: 2.5 nM USP19, 30 min pre-incubation, average of at least two duplicate experiments. Type of test: biochemical. The method, boiled down: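 Full-length USP19 preincubated 30 min at RT with inhibitor (200 μM to 2 μM series, 8–18 points) before adding 500 nM Ubiquitin-Lys-TAMRA substrate.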
In general terms: Fluorescence polarisation rises when a labelled molecule tumbles more slowly, as on binding a larger partner.

A value given as a limit tells only on which side of the number the result lay.

Usually IC50 stands for the concentration at which inhibition is half-maximal. As for `O=C(N1CC[C@@](O)(Cn2cnc(N3CC(F)(F)C3)cc2=O)C2(CCCC2)C1)N1CCNC[C@H]1c1ccccc1` [Example 357, 6-(3,3-Difluoro-azetidin-1-yl)-3-(((S)-10-hydroxy-7-((R)-2-phenylpiperazine-1-carbonyl)-7-aza-spiro[4.5]decan-10-yl)methyl)pyrimidin-4(3H)-one], the IC50 was less than 0.5 µM. As to `O=C(N1CC[C@@](O)(Cn2cnc(-c3ccccc3)cc2=O)C2(CCCC2)C1)N1CCNCC1c1cccs1` (stereo partly drawn) [Example 358, 3-(((10S)-10-Hy-droxy-7-(2-(thio-phen-2-yl)piperazine-1-carbonyl)-7-aza-spiro[4.5]decan-10-yl)methyl)-6-phenylpyrimidin-4(3H)-one], the IC50 was less than 0.5 µM. The result for `O=C(N1CC[C@@](O)(Cn2cnc(N3CCC(F)(F)C3)cc2=O)C2(CCCC2)C1)N1CCNC[C@H]1c1ccccc1` [Example 359, 6-(3,3-Difluoro-pyrrolidin-1-yl)-3-(((S)-10-hydroxy-7-((R)-2-phenylpiperazine-1-carbonyl)-7-aza-spiro[4.5]decan-10-yl)methyl)pyrimidin-4(3H)-one] reads less than 0.5 µM; that for `O=C(N1CC[C@@](O)(Cn2cnc(-c3ccccc3C(F)(F)F)cc2=O)C2(CCCC2)C1)N1CCNC[C@H]1c1ccccc1` [Example 360, 3-(((S)-10-Hydroxy-7-((R)-2-phenylpiperazine-1-carbonyl)-7-azaspiro[4.5]decan-10-yl)methyl)-6-(2-(trifluoromethyl)phe-nyl)pyrimidin-4(3H)-one], less than 0.5 µM. The result for `O=C(N1CC[C@@](O)(Cn2cnc(N3CCC(F)CC3)cc2=O)C2(CCCC2)C1)N1CCNC[C@H]1c1ccccc1` [Example 361, 6-(4-Fluoropiperidin-1-yl)-3-(((S)-10-hydroxy-7-((R)-2-phenylpiperazine-1-carbonyl)-7-aza-spiro[4.5]decan-10-yl)methyl)pyrimidin-4(3H)-one] reads less than 0.5 µM; that for `Cn1nc(C(F)(F)F)cc1-c1ccn(C[C@]2(O)CCN(C(=O)N3CCNC[C@H]3c3ccccc3)CC23CCCC3)c(=O)c1` [Example 362, 1-(((S)-10-Hydroxy-7-((R)-2-phenylpiperazine-1-carbonyl)-7-azaspiro [4.5]decan-10-yl)methyl)-4-(1-methyl-3-(trifluoromethyl)-1H-pyrazol-5-yl)pyri-din-2(1H)-one], less than 0.5 µM. The result for `O=C(N1CC[C@@](O)(Cn2cnc(N3CCCC(F)(F)C3)cc2=O)C2(CCCC2)C1)N1CCNC[C@H]1c1ccccc1` [Example 363, 6-(3,3-Difluoro-piperidin-1-yl)-3-(((S)-10-hydroxy-7-((R)-2-phenylpiperazine-1-carbonyl)-7-azaspiro[4.5]decan-10-yl)methyl)pyrimi-din-4(3H)-one] reads less than 0.5 µM; that for `O=C(N1CC[C@@](O)(Cn2cnc(-c3ccccc3OC(F)F)cc2=O)C2(CCCC2)C1)N1CCNC[C@H]1c1ccccc1` [Example 364, 6-(2-(Difluoro-methoxy)phenyl)-3-(((S)-10-hydroxy-7-((R)-2-phenylpiperazine-1-carbonyl)-7-aza-spiro[4.5]decan-10-yl)methyl)pyrimidin-4(3H)-one], less than 0.5 µM.

Consider `O=C(N1CC[C@@](O)(Cn2cnc(-c3ccccc3OC3CC3)cc2=O)C2(CCCC2)C1)N1CCNC[C@H]1c1ccccc1` [Example 365, 6-(2-Cyclo-propoxyphenyl)-3-(((S)-10-hydroxy-7-((R)-2-phenylpipera-zine-1-carbonyl)-7-azaspiro[4.5]decan-10-yl)methyl)pyrimi-din-4(3H)-one], for which the IC50 is less than 0.5 µM. The result for `O=C(N1CC[C@@](O)(Cn2cnc(-c3ccccc3C(F)F)cc2=O)C2(CCCC2)C1)N1CCNC[C@H]1c1ccccc1` [Example 366, 6-(2-(Difluoro-methyl)phenyl)-3-(((S)-10-hydroxy-7-((R)-2-phenylpiperazine-1-carbonyl)-7-aza-spiro[4.5]decan-10-yl)methyl)pyrimidin-4(3H)-one] reads less than 0.5 µM. Take `O=C(N1CC[C@@](O)(Cn2cnc(-c3ccccc3)cc2=O)C2(CCCC2)C1)N1CCNC[C@H]1c1cccc(F)c1F` [Example 367, 3-(((S)-7-((R)-2-(2,3-Difluoro-phenyl)piper-azine-1-carbonyl)-10-hydroxy-7-azaspiro[4.5]decan-10-yl)methyl)-6-phenylpyrimidin-4(3H)-one]: the IC50 was less than 0.5 µM. The result for `O=C(N1CC[C@@](O)(Cn2cnc(-c3ccccc3)cc2=O)C2(CCCC2)C1)N1CCNC[C@H]1c1ccc(F)cc1F` [Example 368, 3-(((S)-7-((R)-2-(2,4-Difluoro-phenyl)piper-azine-1-carbonyl)-10-hydroxy-7-azaspiro[4.5]decan-10-yl)methyl)-6-phenylpyrimidin-4(3H)-one] reads less than 0.5 µM; that for `O=C(N1CC[C@@](O)(Cn2cnc(-c3ccccc3)cc2=O)C2(CCCC2)C1)N1CCNC[C@H]1c1ccc(F)cc1` [Example 369, 3-(((S)-7-((R)-2-(4-Fluorophenyl)pipera-zine-1-carbonyl)-10-hydroxy-7-azaspiro[4.5]decan-10-yl)methyl)-6-phenylpyrimidin-4(3H)-one], less than 0.5 µM; that for `O=C(N1CC[C@@](O)(Cn2cnc(-c3ccccc3)cc2=O)C2(CCCC2)C1)N1CCNC[C@H]1c1ccccc1F` [Example 370, 3-(((10S)-7-(2-(2-Fluorophenyl)pipera-zine-1-carbonyl)-10-hydroxy-7-azaspiro[4.5]decan-10-yl)methyl)-6-phenylpyrimidin-4(3H)-one], less than 0.5 µM.

Take `Cn1ccc(-c2cc(=O)n(C[C@]3(O)CCN(C(=O)N4CCNC[C@H]4c4ccccc4)CC34CCCC4)cn2)n1` [Example 371, 3-(((S)-10-Hydroxy-7-((R)-2-phenylpiperazine-1-carbonyl)-7-aza-spiro[4.5]decan-10-yl)methyl)-6-(1-methyl-1H-pyrazol-3-yl)pyrimidin-4(3H)-one]: the IC50 was less than 0.5 µM.

For `O=C1CN(C(=O)N2CC[C@@](O)(Cn3cnc(-c4ccccc4)cc3=O)C3(CCCC3)C2)[C@H](c2ccccc2)CN1` [Example 372, 3-(((S)-10-Hydroxy-7-((R)-5-oxo-2-phenylpiperazine-1-carbonyl)-7-azaspiro[4.5]decan-10-yl)methyl)-6-phenylpyrimidin-4(3H)-one], the IC50 was less than 0.5 µM. The same measure for `O=C(N1CC[C@@](O)(Cn2cnc(-c3ccccc3)cc2=O)C2(CCCC2)C1)N1CCNC[C@H]1c1cc(F)ccc1F` [Example 373, 3-(((S)-7-((R)-2-(2,5-Difluorophenyl)piper-azine-1-carbonyl)-10-hydroxy-7-azaspiro[4.5]decan-10-yl)methyl)-6-phenylpyrimidin-4(3H)-one]: less than 0.5 µM; for `O=C(N1CCC(O)(Cn2ccc(-c3ccccc3)cc2=O)C2(CCCC2)C1)N1CCNCC1c1cc(F)ccc1F` [Example 374, 1-(((S)-7-((R)-2-(2,5-Difluorophenyl)piper-azine-1-carbonyl)-10-hydroxy-7-azaspiro[4.5]decan-10-yl)methyl)-4-phenylpyridin-2(1H)-one]: less than 0.5 µM; for `O=C(N1CC[C@@](O)(Cn2cnc(-c3cccc(F)c3)cc2=O)C2(CCCC2)C1)N1CCNC[C@H]1c1cccc(F)c1` [Example 375, 6-(3-Fluorophenyl)-3-(((S)-7-((R)-2-(3-fluorophenyl)pipera-zine-1-carbonyl)-10-hydroxy-7-aza-spiro[4.5]decan-10-yl)methyl)pyrimidin-4(3H)-one]: less than 0.5 µM. The result for `O=C(N1CC[C@@](O)(Cn2cnc(-c3cccc(F)c3)cc2=O)C2(CCCC2)C1)N1CCNC[C@H]1c1cc(F)ccc1F` [Example 376, 3-(((S)-7-((R)-2-(2,5-Difluorophenyl)piper-azine-1-carbonyl)-10-hydroxy-7-azaspiro[4.5]decan-10-yl)methyl)-6-(3-fluorophenyl)pyrimi-din-4(3H)-one] reads less than 0.5 µM. The same measure for `O=C(N1CC[C@@](O)(Cn2cnc(C3CC3)cc2=O)C2(CCCC2)C1)N1CCNC[C@H]1c1cccc(F)c1` [Example 377, 6-Cyclopropyl-3-(((S)-7-((R)-2-(3-fluoro-phenyl)piperazine-1-carbonyl)-10-hydroxy-7-aza-spiro[4.5]decan-10-yl)methyl)pyrimidin-4(3H)-one]: less than 0.5 µM.

For the origin of these results see US20220033397A1, “PHARMACEUTICAL COMPOUNDS AND THEIR USE AS INHIBITORS OF UBIQUITIN SPECIFIC PROTEASE 19 (USP19)” (ALMAC DISCOVERY LIMITED, priority 2018, published 2022).
